Laboratory results reported in patent publication US8772226B2, “Methods and compositions for the detection of cancer” (The Johns Hopkins University, priority 2009, dated 2014).
Starred links: 1 amine or outer side, 2 acyl side, 3 side chain; linkers in the order of their positions; H or OH if unused. Non-standard residues stand in square brackets, D forms with d. Residues, ends and D or L forms follow the SMILES beside them. No end group written: not given here. *: point of attachment. X1 = C/C=C(/C)C(=O)O[C@H]1C(C)=C2[C@H]([C@@H]1OC(=O)CCCCCCC)[C@@](C)(OC(C)=O)C[C@H](OC(=O)Cc1ccc(O)c(CCCCCN*)c1)[C@@]1(O)[C@H]2OC(=O)[C@@]1(C)O; γGlu = O=C(O)[C@H](CCC(=O)[*:2])N[*:1]; Morpholide = C1CN(*)CCO1; PhADT = not defined here; CO = O=C([*:1])[*:2]

Assays:
[1] = Peptide stability in serum; format: in vitro ADME
Description: (§1) Some preferred peptides include a PSMA-hydrolyzable, a-linked dipeptide “cap” that are not substrates for GGH, and are more specific PSMA substrates. Combination a- and side chain-linked PSMA substrates can be highly efficient and specific. […] A number of aspartate- and glutamate-containing linkers are depicted in FIG. 1. These particular linkers can be bonded to amine groups on therapeutic drugs.

[2] = target: T1, SERCA pump (Oryctolagus cuniculus, UniProt P04191); assay: Microsomal assay of SERCA pump inhibition compared to TG; format: biochemical
T1 construct: from tissue; host or cells: microsomes
T1 sequence (P04191 1-994 isoform P04191-2): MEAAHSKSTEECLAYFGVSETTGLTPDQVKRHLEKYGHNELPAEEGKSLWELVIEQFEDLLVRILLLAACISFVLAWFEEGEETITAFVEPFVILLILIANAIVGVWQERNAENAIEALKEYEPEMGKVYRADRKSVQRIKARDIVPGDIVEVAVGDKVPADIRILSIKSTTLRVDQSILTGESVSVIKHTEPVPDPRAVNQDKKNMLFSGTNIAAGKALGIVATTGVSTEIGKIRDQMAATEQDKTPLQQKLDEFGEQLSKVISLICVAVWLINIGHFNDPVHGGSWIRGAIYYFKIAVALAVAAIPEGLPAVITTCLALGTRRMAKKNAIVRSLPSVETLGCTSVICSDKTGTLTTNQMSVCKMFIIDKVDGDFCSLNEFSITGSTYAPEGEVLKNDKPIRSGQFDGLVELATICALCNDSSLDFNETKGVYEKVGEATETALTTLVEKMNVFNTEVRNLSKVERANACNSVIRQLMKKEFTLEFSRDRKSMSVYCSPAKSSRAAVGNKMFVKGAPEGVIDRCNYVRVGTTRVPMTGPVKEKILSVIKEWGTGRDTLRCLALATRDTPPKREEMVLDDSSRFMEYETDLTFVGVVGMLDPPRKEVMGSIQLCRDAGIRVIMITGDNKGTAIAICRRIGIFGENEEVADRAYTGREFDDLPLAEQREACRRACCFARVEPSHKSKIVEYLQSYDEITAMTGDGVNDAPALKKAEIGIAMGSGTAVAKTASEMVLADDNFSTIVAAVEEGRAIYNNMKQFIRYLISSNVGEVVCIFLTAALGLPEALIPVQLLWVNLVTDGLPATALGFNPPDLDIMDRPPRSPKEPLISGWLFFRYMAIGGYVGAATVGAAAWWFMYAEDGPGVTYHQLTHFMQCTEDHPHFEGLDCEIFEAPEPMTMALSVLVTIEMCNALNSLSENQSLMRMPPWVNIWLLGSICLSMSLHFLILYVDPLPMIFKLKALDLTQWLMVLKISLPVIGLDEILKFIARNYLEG
Method: FIG. 6. Microsomal assay comparing inhibition of SERCA pump by compound 14 and TG over a range of concentrations.
All materials were purified by column chromatography with structure confirmed by NMR analysis and mass spectroscopy. The purified phenolic TG analog 14 was then tested in a previously described microsomal assay system to assess inhibition of the SERCA pump compared to TG, FIG. 6.

[3] = Peptide stability to hydrolysis in mouse plasma; format: in vitro ADME
Description: as §1

[4] = Peptide stability to hydrolysis in human plasma; format: in vitro ADME
Description: as §1

[5] = system: LNCaP cells; assay: Cleavage assay with LNCaP cells, metabolites by LC/MS; format: cell-based, human; settings: 3 days culture with drug
[6] = system: LNCaP cells
[7] = system: CWR22H tumor; assay: Biodistribution in CWR22H tumor bearing mice; format: in vivo; settings: % Injected Dose/gram tissue, five days after single intravenous dose of 2 μmole (120 mg/kg) of prodrug
Method: FIGS. 4A and 4B are (A) selective accumulation of 12ADT-Asp and 12ADT-Asp-Glu in tumor tissue compared to indicated normal tissue five days after single intravenous dose of 2 μmole (120 mg/kg) (FIG. 4A discloses “Asp-Glu*Glu*Glu*Glu” as SEQ ID NO: 57); and (B) biodistribution of TG species (sum of 12ADT-Asp, 12ADT-Asp-Glu and 12ADT-Asp-Glu*Glu*Glu*Glu (SEQ ID NO: 57)) in CWR22H tumor bearing mice. Data presented as % Initial dose (ID)/gram and tumor/tissue ratios (n=4 mice).
In the course of developing a PSMA-activated TG therapy, a prodrug that was readily hydrolyzed by PSMA and selectively toxic to PSMA-producing human prostate cancers in vitro and in vivo was identified. Tissue levels of the TG analog (12ADT-Asp) that is released from the peptide carrier by PSMA were analyzed. See, for example, FIG. 4A.
The characterization of 12ADT-Asp is described in detail below. This TG analog is even more lipophilic than TG due to substitution of the butanoyl side chain of TG with a 12 carbon aminododecanoyl side chain. While it might have been expected to see accumulation of this highly lipophilic 12ADT-Asp in tumor tissue due to PSMA activation, the magnitude of accumulation of the free drug compared to plasma was unexpected. […]

[8] = target: sarcoplasmic reticulum (SR) and endoplasmic reticulum (ER) Ca2+-ATPase (SERCA) pump; settings: SERCA pump of skeletal, cardiac, muscle and brain microsomes; read-out: apparent dissociation constant; cited from earlier work
[9] = system: SERCA; assay: SERCA inhibition compared to TG (preliminary / earlier data); format: biochemical

## N[C@@H](CCC(=O)N[C@@H](CCC(=O)N[C@@H](CCC(=O)N[C@@H](CC(=O)O)C(=O)N[C@@H](CCC(=O)O)C(=O)O)C(=O)O)C(=O)O)C(=O)O [Glu*Glu*Glu*Asp-Glu] ({γGlu-γGlu-γGlu}-Asp-Glu-OH; N-terminus and C-terminus assumed)
[1]
  stability in serum: high stability in serum

## C/C=C(/C)C(=O)OC1C(C)=C2[C@H]([C@@H]1OC(=O)CCCCCCC)[C@@](C)(OC(C)=O)CC(OC(=O)CCc1cc(I)c(O)c(CCCCCNC(=O)OC(C)(C)C)c1)[C@@]1(O)[C@H]2OC(=O)[C@@]1(C)O (stereo partly shown) [compound 14]
[2]
  ability to inhibit the SERCA pump: maintained potent ability to inhibit the SERCA pump at nanomolar concentrations
[2]; range of concentrations, compared to TG
  potency of SERCA pump inhibition relative to TG (fold less potent): approximately 4 fold

## NC(=O)CC[C@H](NC(=O)[C@H](CC(=O)O)NC(=O)CC[C@H](NC(=O)CC[C@H](NC(=O)CC[C@H](N)C(=O)O)C(=O)O)C(=O)O)C(=O)O [Glu*Glu*Glu*Asp-Gln] ({γGlu-γGlu-γGlu}-Asp-Gln-OH; N-terminus and C-terminus assumed)
[1]
  stability in serum: high stability in serum

## N[C@@H](CC(=O)O)C(=O)N[C@@H](CCC(=O)N[C@@H](CCC(=O)N[C@@H](CC(=O)O)C(=O)N[C@@H](CCC(=O)O)C(=O)O)C(=O)O)C(=O)O [Asp-Glu*Glu*Asp-Glu] (H-D[γGlu][γGlu]DE-OH; N-terminus and C-terminus assumed)
[3]
  stability to hydrolysis in plasma: completely stable to hydrolysis
[4]
  stability to hydrolysis in plasma: completely stable to hydrolysis

## C/C=C(/C)C(=O)O[C@H]1C(C)=C2[C@H]([C@@H]1OC(=O)CCCCCCC)[C@@](C)(OC(C)=O)C[C@H](OC(=O)Cc1ccc(O)c(CCCCCNC(=O)[C@H](CC(C)C)NC(=O)[C@H](CCC(N)=O)NC(=O)[C@H](CC(C)C)NC(=O)[C@H](CCCCN)NC(=O)[C@H](CO)NC(=O)[C@H](CO)NC(=O)[C@H](Cc3c[nH]cn3)NC(=O)N3CCOCC3)c1)[C@@]1(O)[C@H]2OC(=O)[C@@]1(C)O [JHD9784, His-Ser-Ser-Lys-Leu-Gln-Leu-(PhADT)] ({Morpholide-CO}-HSSKLQL-X1)
[5]
  cleavage of pro-drug by LNCaP cells: can cleave
[6]
  IC50: 2.5 nM

## (PhADT)-Glu-yGlu-yGlu-yGlu (PhADT-E[γGlu][γGlu][γGlu]; reading uncertain) [JHD9783]
[5]
  cleavage of pro-drug by LNCaP cells: can cleave

## C/C=C(/C)C(=O)O[C@H]1C(C)=C2[C@H]([C@@H]1OC(=O)CCCCCCC)[C@@](C)(OC(C)=O)C[C@H](OC(=O)CCCCCCCCCCCNC(=O)C[C@H](N)C(=O)O)[C@@]1(O)[C@H]2OC(=O)[C@@]1(C)O [12ADT-Asp]
[7]
  Tumor/Kidney ratio: 15.4
  Tumor/Skeletal muscle ratio: 20.5

## C/C=C(/C)C(=O)O[C@H]1C(C)=C2[C@H]([C@@H]1OC(=O)CCCCCCC)[C@@](C)(OC(C)=O)C[C@H](OC(=O)CCC)[C@@]1(O)[C@H]2OC(=O)[C@@]1(C)O [Thapsigargin]
[8]
  Kd: ≤ 0.0022 nM

## C/C=C(/C)C(=O)O[C@H]1C(C)=C2[C@H]([C@@H]1OC(=O)CCCCCCC)[C@@](C)(OC(C)=O)C[C@H](OC(=O)CCCCCCCCCCCN)[C@@]1(O)[C@H]2OC(=O)[C@@]1(C)O [12ADT]
[9]
  SERCA inhibition compared to TG: as efficiently as does TG
